Source: patent US6623766B1, “Process for insecticidal formulation effective in controlling malarial vector, mosquitoes” (Council of Scientific and Industrial Research, priority 2002, dated 2003)

Test system: mosquito (Anopheles stephensi) larvae
Test: Standard WHO larvicidal test (WHO, 1981, slightly modified) on fourth-stage mosquito larvae, mortality after 24 hours
Type: in vivo
Description: (§1) Essential oil (0.1 ml) obtained from plant genus Foeniculum vulgare was first mixed with Tween-80 (0.1 ml) of 0.001% concentration and then the mixture was dissolved in water to make the solution of 0.01% concentration. This solution was tested against mosquito (Anopheles stephensi) larvae in the laboratory.
(§2) Standard WHO test (WHO, 1981) was employed with slight modification in the test procedure. A single fourth-stage larva was put into each of fifty vials containing 5 ml of the got test solution of each concentration. Single vial with one larva was used in one replication. Thus a total of 50 insects were used in fifty replications. Mortality data for mosquito larvae were recorded after 24 hours.
as §1, with “Mentha spicata var. viridis” for “Foeniculum vulgare”
as §2, with “the” for “the got”
as §1, with “Zingiber officinale” for “Foeniculum vulgare”
Tween-80 purchased from Hi-Media, Mumbai, India, an emulsifying agent (0.1-ml) of 0.001% concentration was dissolved in water to make the solution of 0.01% concentration. This solution was tested against mosquito (Anopheles stephensi) larvae in the laboratory.
as §1, with “oil (0.05 ml each)” for “oil (0.1 ml)”, “vulgare and Mentha spicata var. viridis were” for “vulgare was”
as §1, with “oil (0.05 ml each)” for “oil (0.1 ml)”, “vulgare and Zingiber officinale were” for “vulgare was”, “laboratory. […]” for “laboratory.”

Row | Compound | Mean % mortality after 24 hours (0.0016% concentration (standard), Anopheles stephensi larvae, Table 1 summary) [%] | mortality (0.0016% concentration, fourth-stage larvae, recorded after 24 hours, laboratory conditions) [%] | Mean % mortality after 24 hours (in vivo) [%] | mortality (in vivo) [%]
1 | C/C=C\c1cc(OC)c(OC)cc1OC [Example 14, β-Asarone] | 100 | 100.0 | – | –
2 | Tween-80 [Example 4] | – | – | 0 | 0.0
